Usually DC50 stands for the midpoint of the concentration-degradation curve.

The structures appear in SMILES notation. Read-outs that look alike come from different tables or passages of the source. A value given as a limit tells only on which side of the number the result lay.

This experiment deals with T1, IRAK4 (Homo sapiens, UniProt Q9NWZ3).
T1 construct: Degradation of IRAK4 in OCI-LY10 was quantitatively measured using Meso Scale Discovery technology; endogenous in cells; host or cells: OCI-LY10
T1 sequence (Q9NWZ3 1-460): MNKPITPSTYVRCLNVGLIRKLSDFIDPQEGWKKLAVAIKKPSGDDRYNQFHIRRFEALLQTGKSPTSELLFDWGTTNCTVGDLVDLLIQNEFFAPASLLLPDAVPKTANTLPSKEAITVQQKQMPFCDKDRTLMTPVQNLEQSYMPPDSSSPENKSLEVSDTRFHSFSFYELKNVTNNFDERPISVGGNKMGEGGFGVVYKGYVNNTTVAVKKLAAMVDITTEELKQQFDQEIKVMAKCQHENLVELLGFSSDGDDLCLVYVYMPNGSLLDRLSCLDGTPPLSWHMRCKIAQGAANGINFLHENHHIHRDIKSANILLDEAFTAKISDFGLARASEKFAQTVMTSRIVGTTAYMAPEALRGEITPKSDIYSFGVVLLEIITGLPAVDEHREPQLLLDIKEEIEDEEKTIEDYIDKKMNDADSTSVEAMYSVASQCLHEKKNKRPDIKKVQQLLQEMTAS
Description: IRAK4 MSD Degradation in OCI-LY10. The format is cell-based. The settings on record: OCI-LY10 cells, MSD. In outline:
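OCI-LY10 cells exposed to 8-point 1:3 compound series (top 1 to 10 μM) for 4 to 24 h at 37 °C, 5% CO2. Lysate IRAK4 quantified by MSD sandwich immunoassay. DC50 from three-parameter logistic fit, binned A (<0.01 μM) to D (>0.2 μM or not tested).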

[1] abbreviates: 4 hrs incubation, read-out: IRAK4 degradation in OCI-LY10 at 4 hrs: DC50.
Where [2] appears, read: 24 hrs incubation, read-out: IRAK4 degradation in OCI-LY10 at 24 hrs: DC50.

Consider `Cn1c(=O)n(C2CCC(=O)NC2=O)c2cccc(N3CC(F)(F)C34CN(C[C@H]3CC[C@H](n5cc6cc(NC(=O)c7cccc(C(F)(F)F)n7)ccc6n5)CC3)C4)c21` (stereo partly drawn) [I-499], for which the half-maximal degradation concentration (DC50) under setting [1] is > 200 nM and the 50% degradation concentration (DC50) under setting [2] was > 200 nM.
In the case of `Cn1c(=O)n(C2CCC(=O)NC2=O)c2cccc(N3CC4(C3)N(C[C@H]3CC[C@H](n5cc6cc(NC(=O)c7cccc(C(F)(F)F)n7)ccc6n5)CC3)CC4(F)F)c21` (stereo partly drawn) [I-500], the DC50 reads like this: under setting [1], > 200 nM; under setting [2], > 200 nM.
On to `Cn1c(=O)n(C2CCC(=O)NC2=O)c2cccc(C#CCN3CC4(C3)N(C[C@H]3CC[C@H](n5cc(NC(=O)c6cnn7ccc(N8CCCC8)nc67)c(C(F)F)n5)CC3)CC4(F)F)c21` (stereo partly drawn) [I-501], for which the half-maximal degradation concentration (DC50) reads like this: under setting [1], > 200 nM; under setting [2], > 200 nM.
Consider `CN(C[C@H]1CC[C@H](n2cc(NC(=O)c3cnn4ccc(N5C[C@H]6C[C@@H]5CO6)nc34)c(C(F)F)n2)CC1)C1CCN(c2cccc3c2n(C)c(=O)n3C2CCC(=O)NC2=O)CC1(F)F` (stereo partly drawn) [I-502], for which the DC50 is > 200 nM under setting [1] and > 200 nM under setting [2].
Consider `CN(CC[C@H]1CC[C@H](n2cc(NC(=O)c3cnn4cccnc34)c(C(F)F)n2)CC1)C1CCN(c2cccc3c2n(C)c(=O)n3C2CCC(=O)NC2=O)CC1(F)F` (stereo partly drawn) [I-503], for which the half-maximal degradation concentration (DC50) is, setting by setting: under setting [1], > 200 nM; under setting [2], > 200 nM.
Consider `CN(C[C@H]1CC[C@H](n2cc(NC(=O)c3cnn4ccc(N5CCC5)nc34)c(C(F)F)n2)CC1)C1CCN(c2cccc3c2n(C)c(=O)n3C2CCC(=O)NC2=O)CC1(F)F` (stereo partly drawn) [I-504], for which the DC50 was > 200 nM under setting [1] and > 200 nM under setting [2].
Take `CN(C[C@H]1CC[C@H](n2cc(NC(=O)c3cnn4ccc(N5CC(C)(C)C5)nc34)c(C(F)F)n2)CC1)C1CCN(c2cccc3c2n(C)c(=O)n3C2CCC(=O)NC2=O)CC1(F)F` (stereo partly drawn) [I-505]: the DC50 runs as follows: under setting [1], > 200 nM; under setting [2], > 200 nM.
On to `CN(C[C@H]1CC[C@H](n2cc(NC(=O)c3cnn4ccc(N5CC6(CC6)C5)nc34)c(C(F)F)n2)CC1)C1CCN(c2cccc3c2n(C)c(=O)n3C2CCC(=O)NC2=O)CC1(F)F` (stereo partly drawn) [I-506], for which the DC50 by setting is: under setting [1], > 200 nM; under setting [2], > 200 nM.
For the compound `CN(C[C@H]1CC[C@H](n2cc(NC(=O)c3cnn4ccc(N5CC(F)(F)C5)nc34)c(C(F)F)n2)CC1)C1CCN(c2cccc3c2n(C)c(=O)n3C2CCC(=O)NC2=O)CC1(F)F` (stereo partly drawn) [I-507], the DC50 is, setting by setting: under setting [1], > 200 nM; under setting [2], > 200 nM.
With `CN(C[C@H]1CC[C@H](n2cc(NC(=O)c3cnn4ccc(N5CC(O)C5)nc34)c(C(F)F)n2)CC1)C1CCN(c2cccc3c2n(C)c(=O)n3C2CCC(=O)NC2=O)CC1(F)F` (stereo partly drawn) [I-508], the half-maximal degradation concentration (DC50) reads like this: under setting [1], > 200 nM; under setting [2], > 200 nM.
Turning to `CN(C[C@H]1CC[C@H](n2cc(NC(=O)c3cnn4ccc(N5CC6(COC6)C5)nc34)c(C(F)F)n2)CC1)C1CCN(c2cccc3c2n(C)c(=O)n3C2CCC(=O)NC2=O)CC1(F)F` (stereo partly drawn) [I-509], the DC50 under setting [1] was > 200 nM and the DC50 under setting [2] lay within 10 to 100 nM.
For `CN(C[C@H]1CC[C@H](n2cc(NC(=O)c3cnn4ccc(N5CC6(CCCOC6)C5)nc34)c(C(F)F)n2)CC1)C1CCN(c2cccc3c2n(C)c(=O)n3C2CCC(=O)NC2=O)CC1(F)F` (stereo partly drawn) [I-510] the same measures were > 200 nM and 10 to 100 nM.
`CN(C[C@H]1CC[C@H](n2cc(NC(=O)c3cnn4ccc(N5CC6(CCOCC6)C5)nc34)c(C(F)F)n2)CC1)C1CCN(c2cccc3c2n(C)c(=O)n3C2CCC(=O)NC2=O)CC1(F)F` (stereo partly drawn) [I-511]: the 50% degradation concentration (DC50) is, setting by setting: under setting [1], > 200 nM; under setting [2], 10 to 100 nM.
For `CN(C[C@H]1CC[C@H](n2cc(NC(=O)c3cnn4ccc(N5CCCC5)nc34)c(C(F)F)n2)CC1)C1CCN(c2cccc3c2n(C)c(=O)n3C2CCC(=O)NC2=O)CC1(F)F` (stereo partly drawn) [I-512] the same measures were > 200 nM and 10 to 100 nM.
For `CN(C[C@H]1CC[C@H](n2cc(NC(=O)c3cnn4ccc(N5CCCC5(C)C)nc34)c(C(F)F)n2)CC1)C1CCN(c2cccc3c2n(C)c(=O)n3C2CCC(=O)NC2=O)CC1(F)F` (stereo partly drawn) [I-513] the same measures were > 200 nM and > 200 nM.
For `CN(C[C@H]1CC[C@H](n2cc(NC(=O)c3cnn4ccc(N5CCCC56CC6)nc34)c(C(F)F)n2)CC1)C1CCN(c2cccc3c2n(C)c(=O)n3C2CCC(=O)NC2=O)CC1(F)F` (stereo partly drawn) [I-514] the same measures were > 200 nM and > 200 nM.
On to `CN(C[C@H]1CC[C@H](n2cc(NC(=O)c3cnn4ccc(N5CCCCC5)nc34)c(C(F)F)n2)CC1)C1CCN(c2cccc3c2n(C)c(=O)n3C2CCC(=O)NC2=O)CC1(F)F` (stereo partly drawn) [I-515], for which the DC50 by setting is: under setting [1], > 200 nM; under setting [2], 10 to 100 nM.
In the case of `CN(C[C@H]1CC[C@H](n2cc(NC(=O)c3cnn4ccc(N5CCC(C)(C)CC5)nc34)c(C(F)F)n2)CC1)C1CCN(c2cccc3c2n(C)c(=O)n3C2CCC(=O)NC2=O)CC1(F)F` (stereo partly drawn) [I-516], the DC50 reads like this: under setting [1], > 200 nM; under setting [2], > 200 nM.
On to `CN(C[C@H]1CC[C@H](n2cc(NC(=O)c3cnn4ccc(N5CCCC(C)(C)C5)nc34)c(C(F)F)n2)CC1)C1CCN(c2cccc3c2n(C)c(=O)n3C2CCC(=O)NC2=O)CC1(F)F` (stereo partly drawn) [I-517], for which the DC50 was > 200 nM under setting [1] and > 200 nM under setting [2].
Regarding `CN(C[C@H]1CC[C@H](n2cc(NC(=O)c3cnn4ccc(N5CCCCC5(C)C)nc34)c(C(F)F)n2)CC1)C1CCN(c2cccc3c2n(C)c(=O)n3C2CCC(=O)NC2=O)CC1(F)F` (stereo partly drawn) [I-518], the DC50 is > 200 nM under setting [1] and > 200 nM under setting [2].
Consider `CN(C[C@H]1CC[C@H](n2cc(NC(=O)c3cnn4ccc(N5CCC(F)(F)CC5)nc34)c(C(F)F)n2)CC1)C1CCN(c2cccc3c2n(C)c(=O)n3C2CCC(=O)NC2=O)CC1(F)F` (stereo partly drawn) [I-519], for which the half-maximal degradation concentration (DC50) is, setting by setting: under setting [1], > 200 nM; under setting [2], > 200 nM.
Turning to `CC1CCN(c2ccn3ncc(C(=O)Nc4cn([C@H]5CC[C@H](CN(C)C6CCN(c7cccc8c7n(C)c(=O)n8C7CCC(=O)NC7=O)CC6(F)F)CC5)nc4C(F)F)c3n2)CC1` (stereo partly drawn) [I-520], the DC50 was > 200 nM under setting [1] and > 200 nM under setting [2].
Turning to `CN(C[C@H]1CC[C@H](n2cc(NC(=O)c3cnn4ccc(N5CCC6(CC5)CC6)nc34)c(C(F)F)n2)CC1)C1CCN(c2cccc3c2n(C)c(=O)n3C2CCC(=O)NC2=O)CC1(F)F` (stereo partly drawn) [I-521], the half-maximal degradation concentration (DC50) was > 200 nM under setting [1] and > 200 nM under setting [2].
In the case of `CN(C[C@H]1CC[C@H](n2cc(NC(=O)c3cnn4ccc(N5CCOCC5)nc34)c(C(F)F)n2)CC1)C1CCN(c2cccc3c2n(C)c(=O)n3C2CCC(=O)NC2=O)CC1(F)F` (stereo partly drawn) [I-522], the DC50 was > 200 nM under setting [1] and 10 to 100 nM under setting [2].
For `CN(C[C@H]1CC[C@H](n2cc(NC(=O)c3cnn4ccc(N5C[C@@H]6C[C@H]5CO6)nc34)c(C(F)F)n2)CC1)C1CCN(c2cccc3c2n(C)c(=O)n3C2CCC(=O)NC2=O)CC1(F)F` (stereo partly drawn) [I-523] the same measures were > 200 nM and 10 to 100 nM.
For `CN(C[C@H]1CC[C@H](n2cc(NC(=O)c3cnn4ccc(N5C6COCC5C6)nc34)c(C(F)F)n2)CC1)C1CCN(c2cccc3c2n(C)c(=O)n3C2CCC(=O)NC2=O)CC1(F)F` (stereo partly drawn) [I-524] the same measures were > 200 nM and 10 to 100 nM.
For the compound `CN(C[C@H]1CC[C@H](n2cc(NC(=O)c3cnn4ccc(N5CC6CC(C5)O6)nc34)c(C(F)F)n2)CC1)C1CCN(c2cccc3c2n(C)c(=O)n3C2CCC(=O)NC2=O)CC1(F)F` (stereo partly drawn) [I-525], the DC50 under setting [1] was > 200 nM and the DC50 under setting [2] is < 10 nM.
For `CN(C[C@H]1CC[C@H](n2cc(NC(=O)c3cnn4ccc(N5CC6CCC(C5)O6)nc34)c(C(F)F)n2)CC1)C1CCN(c2cccc3c2n(C)c(=O)n3C2CCC(=O)NC2=O)CC1(F)F` (stereo partly drawn) [I-526] the same measures were > 200 nM and 10 to 100 nM.
With `CN(C[C@H]1CC[C@H](n2cc(NC(=O)c3cnn4ccc(N5C6CCC5COC6)nc34)c(C(F)F)n2)CC1)C1CCN(c2cccc3c2n(C)c(=O)n3C2CCC(=O)NC2=O)CC1(F)F` (stereo partly drawn) [I-527], the DC50 runs as follows: under setting [1], > 200 nM; under setting [2], 10 to 100 nM.
Take `C[C@H]1CN(c2ccn3ncc(C(=O)Nc4cn([C@H]5CC[C@H](CN(C)C6CCN(c7cccc8c7n(C)c(=O)n8C7CCC(=O)NC7=O)CC6(F)F)CC5)nc4C(F)F)c3n2)CCO1` (stereo partly drawn) [I-528]: the half-maximal degradation concentration (DC50) is > 200 nM under setting [1] and 10 to 100 nM under setting [2].
For `C[C@@H]1CN(c2ccn3ncc(C(=O)Nc4cn([C@H]5CC[C@H](CN(C)C6CCN(c7cccc8c7n(C)c(=O)n8C7CCC(=O)NC7=O)CC6(F)F)CC5)nc4C(F)F)c3n2)CCO1` (stereo partly drawn) [I-529] the same measures were > 200 nM and 10 to 100 nM.
For `CN(C[C@H]1CC[C@H](n2cc(NC(=O)c3cnn4ccc(N5CCOC(C)(C)C5)nc34)c(C(F)F)n2)CC1)C1CCN(c2cccc3c2n(C)c(=O)n3C2CCC(=O)NC2=O)CC1(F)F` (stereo partly drawn) [I-530] the same measures were > 200 nM and 10 to 100 nM.
For `CN(C[C@H]1CC[C@H](n2cc(NC(=O)c3cnn4ccc(N5CC(C)(C)OC(C)(C)C5)nc34)c(C(F)F)n2)CC1)C1CCN(c2cccc3c2n(C)c(=O)n3C2CCC(=O)NC2=O)CC1(F)F` (stereo partly drawn) [I-531] the same measures were > 200 nM and > 200 nM.
